Laboratory results reported in US20130296228A1, “EFFLUX PUMP INHIBITORS” (priority 2010, published 2013).
Where two headings read alike, the source gives them in different places.

What was measured:
[1] = system: P. aeruginosa 23587; assay: Diameter of zone of inhibition of antimicrobial agents with or without efflux pump inhibitor; assay type: cell-based
Excerpt: Since RND efflux pumps operate by utilizing energy in […], metabolic inhibitor, sodium azide brings about MDR RND pump inhibition by causing energy deprivation.

[2] = system: MDR P. aeruginosa; assay: Enhanced killing: viable count over time; assay type: cell-based; conditions: for killing effect of the agent individually: quinolone arginine salt 8 μg/ml, ceftazidime 8 and 16 μg/ml
Procedure: Table 4 results of efflux pump inhibition based cidal synergy between S-(−)-9-Fluoro-8-(4-hydroxy-piperidin-1-yl)-5-methyl-6,7-dihydro-1-oxo-1H,5H-benzo[i,j]quinolizine-2-carboxylic acid L-arginine salt tetrahydrate nd ceftazidime. Potent cidal synergy is observed between S-(−)-9-Fluoro-8-(4-hydroxy-piperidin-1-yl)-5-methyl-6,7-dihydro-1-oxo-1H,5H-benzo[i,j]quinolizine-2-carboxylic acid L-arginine salt tetrahydrate (concentration, 8 μg/ml) and ceftazidime (concentration, 8 and 16 μg/ml). These concentrations are at least 4 times lower than their MIC. […] Thus the efflux pump inhibition based synergy is not just growth inhibitory but also, most importantly, imparts extensive killing of the pathogen.

[3] = system: MDR clinical isolate of P. aeruginosa 2301; assay: Systemic infection in mice, % survival; assay type: in vivo; conditions: for % survival: mice; for protection of infected animals, agent individually: quinolone arginine salt 50 mg/kg, ceftazidime 300 mg/kg
[4] = system: P. aeruginosa 23587; assay: Survival of high density inoculation in MHA medium; assay type: cell-based; conditions: high density inoculation 2-5 × 10^9 CFU/ml
[5] = system: P. aeruginosa 2301; assay: Survival of high density inoculation in MHA medium; assay type: cell-based; conditions: high density inoculation 2-5 × 10^9 CFU/ml; 20 mcg/ml in MHA medium
Excerpt: In a most surprising manner, the combination of ceftazidime and azithromycin and tigecycline respectively brought about more than 7 log reduction in the bacterial count as compared to individual effects in highly resistant Pseudomonas strain. Moreover in a very unusual and surprising manner this tremendous bactericidal effect is taking place at concentrations much below than their individual inhibitory concentrations. […] It is also likely that ceftazidime interacts with outer membrane porins and acts as a porin modulator. Bacalum et al. have shown that ceftazidime binds to outer membrane porins with high affinity (Bacalum et al. Romanian. J. Biophys., 19, 105-116, 2009).

[6] = system: highly resistant P. aeruginosa strains; assay: MIC; assay type: cell-based; conditions: highly resistant P. aeruginosa strains used for infecting animals
[7] = system: outer membrane porins; conditions: Bacalum et al. 2009; cited from earlier work
[8] = system: P. aeruginosa 2301; assay: Diameter of zone of inhibition of antimicrobial agents with or without efflux pump inhibitor; assay type: cell-based; conditions: for Diameter of zone of inhibition: P. aeruginosa 2301

CC(C)(O/N=C(\C(=O)N[C@@H]1C(=O)N2C(C(=O)[O-])=C(C[n+]3ccccc3)CS[C@H]12)c1csc(N)n1)C(=O)O [Ceftazidime, ceftazidime]
inhibition of MDR RND efflux pumps, concluded from potentiation ([1]; clinical isolates of P. aeruginosa): inhibit RND pumps
viable count ([2]; 8 μg/ml, 0 h): 6.11 Log CFU/ ml
viable count ([2]; 8 μg/ml, 24 h): 8.64 Log CFU/ ml
viable count ([2]; 8 μg/ml, 48 h): 9.3 Log CFU/ ml
viable count ([2]; 16 μg/ml, 0 h): 6.11 Log CFU/ ml
viable count ([2]; 16 μg/ml, 24 h): 5.30 Log CFU/ ml
viable count ([2]; 16 μg/ml, 48 h): 9.2 Log CFU/ ml
killing effect of the agent individually [2]: ineffective
% survival ([3]; Table 5, 300 mg/kg BID × 1 day, Subcutaneous): 16.6%
% survival ([3]; Table 7, 100 mg/kg BID × 1 day, Oral): 16.6%
% survival ([3]; Table 7, 200 mg/kg BID × 1 day, Oral): 16.6%
protection of infected animals, agent individually [3]: could not protect
CFU/ml at 48 h ([4]; 64 mcg/ml in MHA medium): >5 × 10^9 CFU/ml
CFU/ml at 48 h [5]: >5 × 10^9 CFU/ml
MIC ([6]; Pseudomonas aeruginosa, read-out: MIC): > 32 mg/L
binding to outer membrane porins [7]: high affinity

C[C@H]1CCc2c(N3CCC(O)CC3)c(F)cc3c(=O)c(C(=O)O)cn1c23.N=C(N)NCCC[C@H](N)C(=O)O.O.O.O.O [S-(−)-9-Fluoro-8-(4-hydroxy-piperidin-1-yl)-5-methyl-6,7-dihydro-1-oxo-1H,5H-benzo[i,j]quinolizine-2-carboxylic acid L-arginine salt tetrahydrate]
change of activity on addition of sodium azide [1]: potentiated
change of activity in the presence of cefepime and ceftazidime ([1]; Example 3): significant potentiation
Diameter of zone of inhibition ([1]; Table 1, P. aeruginosa 23587, +PAN (20 μg/ml), 4 μg/well): 30 m.m.
Diameter of zone of inhibition ([1]; Table 1, P. aeruginosa 23587, +PAN (20 μg/ml), 8 μg/well): 34 m.m.
Diameter of zone of inhibition ([1]; Table 1, P. aeruginosa 23587, +PAN (20 μg/ml), 16 μg/well): 35 m.m.
Diameter of zone of inhibition ([1]; Table 1, P. aeruginosa 23587, Control, 4 μg/well): Nil
Diameter of zone of inhibition ([1]; Table 1, P. aeruginosa 23587, Control, 8 μg/well): 12 m.m.
Diameter of zone of inhibition ([1]; Table 1, P. aeruginosa 23587, Control, 16 μg/well): 15 m.m.
Diameter of zone of inhibition ([1]; Table 2, P. aeruginosa (23587), +Reserpine (25 μg/ml), 8 μg/well): Nil
Diameter of zone of inhibition ([1]; Table 2, P. aeruginosa (23587), +Reserpine (25 μg/ml), 16 μg/well): 11 m.m.
Diameter of zone of inhibition ([1]; Table 2, P. aeruginosa (23587), +Reserpine (25 μg/ml), 32 μg/well): 15 m.m.
Diameter of zone of inhibition ([1]; Table 2, P. aeruginosa (23587), +sodium azide (10 μg/ml), 8 μg/well): 12 m.m.
Diameter of zone of inhibition ([1]; Table 2, P. aeruginosa (23587), +sodium azide (10 μg/ml), 16 μg/well): 15 m.m.
Diameter of zone of inhibition ([1]; Table 2, P. aeruginosa (23587), +sodium azide (10 μg/ml), 32 μg/well): 20 m.m.
Diameter of zone of inhibition ([1]; Table 2, P. aeruginosa (23587), Control, 8 μg/well): Nil
Diameter of zone of inhibition ([1]; Table 2, P. aeruginosa (23587), Control, 16 μg/well): 11 m.m.
Diameter of zone of inhibition ([1]; Table 2, P. aeruginosa (23587), Control, 32 μg/well): 15 m.m.
Diameter of zone of inhibition ([1]; Table 3, P. aeruginosa 23587, +Cefepime (1 μg/ml), 8 μg/Well): 12 m.m.
Diameter of zone of inhibition ([1]; Table 3, P. aeruginosa 23587, +Cefepime (1 μg/ml), 16 μg/Well): 18 m.m.
Diameter of zone of inhibition ([1]; Table 3, P. aeruginosa 23587, +Cefepime (1 μg/ml), 32 μg/Well): 24 m.m.
Diameter of zone of inhibition ([1]; Table 3, P. aeruginosa 23587, +Ceftazidime (1 μg/ml), 8 μg/Well): 20 m.m.
Diameter of zone of inhibition ([1]; Table 3, P. aeruginosa 23587, +Ceftazidime (1 μg/ml), 16 μg/Well): 25 m.m.
Diameter of zone of inhibition ([1]; Table 3, P. aeruginosa 23587, +Ceftazidime (1 μg/ml), 32 μg/Well): 33 m.m.
Diameter of zone of inhibition ([1]; Table 3, P. aeruginosa 23587, Control, 8 μg/Well): 9 m.m.
Diameter of zone of inhibition ([1]; Table 3, P. aeruginosa 23587, Control, 16 μg/Well): 14.5 m.m.
Diameter of zone of inhibition ([1]; Table 3, P. aeruginosa 23587, Control, 32 μg/Well): 19.5 m.m.
change of activity in the presence of PAN ([1]; clinical isolates P. aeruginosa 23587 and P. aeruginosa 2301): Synergistic enhancement
change of activity in the presence of cefepime and ceftazidime ([8]; Example 6): significant potentiation
Diameter of zone of inhibition ([8]; Table 1, +PAN (20 μg/ml), 4 μg/well): 25 m.m.
Diameter of zone of inhibition ([8]; Table 1, +PAN (20 μg/ml), 8 μg/well): 32 m.m.
Diameter of zone of inhibition ([8]; Table 1, +PAN (20 μg/ml), 16 μg/well): 38 m.m.
Diameter of zone of inhibition ([8]; Table 1, Control, 4 μg/well): 15.5 m.m.
Diameter of zone of inhibition ([8]; Table 1, Control, 8 μg/well): 20 m.m.
Diameter of zone of inhibition ([8]; Table 1, Control, 16 μg/well): 23.5 m.m.
Diameter of zone of inhibition ([8]; Table 6, +Cefepime (2 μg/ml), 8 μg/Well): 12 m.m.
Diameter of zone of inhibition ([8]; Table 6, +Cefepime (2 μg/ml), 16 μg/Well): 18 m.m.
Diameter of zone of inhibition ([8]; Table 6, +Cefepime (2 μg/ml), 32 μg/Well): 24 m.m.
Diameter of zone of inhibition ([8]; Table 6, +Ceftazidime (0.5 μg/ml), 8 μg/Well): 20 m.m.
Diameter of zone of inhibition ([8]; Table 6, +Ceftazidime (0.5 μg/ml), 16 μg/Well): 25 m.m.
Diameter of zone of inhibition ([8]; Table 6, +Ceftazidime (0.5 μg/ml), 32 μg/Well): 33 m.m.
Diameter of zone of inhibition ([8]; Table 6, Control, 8 μg/Well): 9 m.m.
Diameter of zone of inhibition ([8]; Table 6, Control, 16 μg/Well): 14.5 m.m.
Diameter of zone of inhibition ([8]; Table 6, Control, 32 μg/Well): 19.5 m.m.
viable count ([2]; 8 μg/ml, 0 h): 6.11 Log CFU/ ml
viable count ([2]; 8 μg/ml, 24 h): 8.64 Log CFU/ ml
viable count ([2]; 8 μg/ml, 48 h): 9.4 Log CFU/ ml
viable count ([2]; 16 μg/ml, 0 h): 6.11 Log CFU/ ml
viable count ([2]; 16 μg/ml, 24 h): 4.30 Log CFU/ ml
viable count ([2]; 16 μg/ml, 48 h): <3.0 Log CFU/ ml
killing effect of the agent individually [2]: ineffective
% survival ([3]; Table 5, 50 mg/kg BID × 1 day, Subcutaneous): 0%
% survival ([3]; Table 5, 75 mg/kg BID × 1 day, Subcutaneous): 33.3%
% survival ([3]; Table 5, 100 mg/kg BID × 1 day, Subcutaneous): 100%
protection of infected animals, agent individually [3]: could not protect
CFU/ml at 48 h ([4]; 32 mcg/ml in MHA medium): >5 × 10^9 CFU/ml
MIC [6]: 16 mg/L
